pIC50: −log10 of the molar value.
target: CtermHisTag-mEGFR Wild type (Homo sapiens, UniProt P00533); assay: biochemical
Sequence (P00533 whole entry): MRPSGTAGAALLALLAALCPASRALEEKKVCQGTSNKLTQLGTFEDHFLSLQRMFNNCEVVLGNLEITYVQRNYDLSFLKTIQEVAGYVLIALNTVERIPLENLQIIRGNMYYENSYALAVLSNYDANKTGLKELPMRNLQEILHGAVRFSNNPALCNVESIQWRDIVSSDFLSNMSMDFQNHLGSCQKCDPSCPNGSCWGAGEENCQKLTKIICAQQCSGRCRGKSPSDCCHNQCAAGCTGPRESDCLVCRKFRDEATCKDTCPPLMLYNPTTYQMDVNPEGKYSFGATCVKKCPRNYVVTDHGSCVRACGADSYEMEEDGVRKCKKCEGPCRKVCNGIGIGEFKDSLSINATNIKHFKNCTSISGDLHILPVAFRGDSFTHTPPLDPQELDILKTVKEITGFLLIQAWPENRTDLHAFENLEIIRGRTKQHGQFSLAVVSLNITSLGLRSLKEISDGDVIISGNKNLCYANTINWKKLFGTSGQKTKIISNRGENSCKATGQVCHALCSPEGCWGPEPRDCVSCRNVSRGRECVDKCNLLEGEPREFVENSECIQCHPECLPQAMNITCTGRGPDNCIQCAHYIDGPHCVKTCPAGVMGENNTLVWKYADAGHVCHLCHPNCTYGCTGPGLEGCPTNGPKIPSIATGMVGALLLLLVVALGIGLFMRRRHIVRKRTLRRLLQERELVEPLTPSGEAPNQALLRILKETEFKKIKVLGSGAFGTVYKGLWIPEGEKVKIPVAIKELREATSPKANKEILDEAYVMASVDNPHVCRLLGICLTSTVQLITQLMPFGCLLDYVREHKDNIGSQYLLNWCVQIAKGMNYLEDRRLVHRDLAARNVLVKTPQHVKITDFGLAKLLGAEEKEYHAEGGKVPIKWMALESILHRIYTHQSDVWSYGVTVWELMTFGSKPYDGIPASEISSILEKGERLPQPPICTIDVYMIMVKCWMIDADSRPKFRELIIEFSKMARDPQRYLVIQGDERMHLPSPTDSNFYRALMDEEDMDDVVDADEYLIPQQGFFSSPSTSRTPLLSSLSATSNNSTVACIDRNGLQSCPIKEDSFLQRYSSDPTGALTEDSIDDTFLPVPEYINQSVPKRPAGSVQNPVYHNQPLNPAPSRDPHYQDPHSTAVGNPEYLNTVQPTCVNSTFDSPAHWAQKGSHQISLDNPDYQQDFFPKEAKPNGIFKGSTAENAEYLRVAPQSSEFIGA

SMILES | pIC50
C=Cc1c(C#N)c(=O)n(-c2ccccc2)c2nc(Nc3ccccc3OC)ncc12 [Example 159, 5-ethenyl-2-[(2-methoxyphenyl)amino]-7-oxo-8-phenylpyrido[2,3-d]pyrimidine-6-carbonitrile] | 5.00 to 6.00
C#Cc1c(C(=O)N(C)C)c(=O)n(-c2ccccc2)c2nc(Nc3ccccc3OC)ncc12 [Example 146, 5-ethynyl-2-[(2-methoxyphenyl)amino]-N,N-dimethyl-7-oxo-8-phenylpyrido[2,3-d]pyrimidine-6-carboxamide] | < 5.00
C#Cc1c(-c2ccccc2Cl)c(=O)n(C)c2nc(NCCCCN3CCN(C)CC3)ncc12 [Example 130, 6-(2-chlorophenyl)-5-ethynyl-8-methyl-2-{[4-(4-methylpiperazin-1-yl)butyl]amino}pyrido[2,3-d]pyrimidin-7-one] | < 5.00
C#Cc1c(-c2ccccc2Cl)c(=O)n(C)c2nc(Nc3ccccc3OC)ncc12 [Example 123, 6-(2-chlorophenyl)-5-ethynyl-2-[(2-methoxyphenyl)amino]-8-methylpyrido[2,3-d]pyrimidin-7-one] | < 5.00
C#Cc1c(C(=O)NC)c(=O)n(-c2ccccc2)c2nc(Nc3ccccc3OC)ncc12 [Example 141, 5-ethynyl-2-[(2-methoxyphenyl)amino]-N-methyl-7-oxo-8-phenylpyrido[2,3-d]pyrimidine-6-carboxamide] | < 5.00
C#Cc1cc(=O)n(-c2ccc(OC)cc2)c2nc(Nc3ccccc3OC)ncc12 [Example 84, 5-ethynyl-8-(4-methoxyphenyl)-2-[(2-methoxyphenyl)amino]pyrido[2,3-d]pyrimidin-7-one] | < 5.00
C#Cc1cc(=O)n(C(C)C)c2nc(Nc3ccccc3OC)ncc12 [Example 83, 5-Ethynyl-8-isopropyl-2-[(2-methoxyphenyl)amino]pyrido[2,3-d]pyrimidin-7-one] | < 5.00
C=Cc1c(-c2ccccc2Cl)c(=O)n(C)c2nc(Nc3cccc(OC)c3)ncc12 [Example 168, 6-(2-chlorophenyl)-5-ethenyl-2-[(3-methoxyphenyl)amino]-8-methylpyrido[2,3-d]pyrimidin-7-one] | < 5.00
C=Cc1c(-c2ccccc2Cl)c(=O)n(C)c2nc(Nc3cccc(CO)c3)ncc12 [Example 169, 6-(2-chlorophenyl)-5-ethenyl-2-{[3-(hydroxymethyl)phenyl]amino}-8-methylpyrido[2,3-]pyrimidin-7-one] | 5.00 to 6.00
C#Cc1nc(=O)n(-c2ccccc2)c2nc(Nc3ccccc3OC)ncc12 [Example 4, 4-Ethynyl-7-[(2-methoxyphenyl)amino]-1-phenylpyrimido[4,5-d][1,3]diazin-2-one] | > 6.00
C=Cc1c(-c2ccccc2Cl)c(=O)n(C)c2nc(NCCCCN3CCN(C)CC3)ncc12 [Example 174, 6-(2-chlorophenyl)-8-methyl-2-((4-(4-methylpiperazin-1-yl)butyl)amino)-5-vinylpyrido[2,3-d]pyrimidin-7(8H)-one] | < 5.00
C=Cc1c(-c2ccccc2)c(=O)n(C)c2nc(Nc3ccccc3OC)ncc12 [Example 162, 5-ethenyl-2-[(2-methoxyphenyl)amino]-8-methyl-6-phenylpyrido[2,3-d]pyrimidin-7-one] | < 5.00
C#Cc1cc(=O)n(-c2ccccc2)c2nc(Nc3ccc(N4CCOCC4)cc3OC)ncc12 [Example 35, 5-Ethynyl-2-((2-methoxy-4-morpholinophenyl)amino)-8-phenylpyrido[2,3-d]pyrimidin-7(8H)-one] | > 6.00
C=Cc1c(-c2ccccc2Cl)c(=O)n(C)c2nc(Nc3ccccc3OC)ncc12 [Example 161, 6-(2-chlorophenyl)-5-ethenyl-2-[(2-methoxyphenyl)amino]-8-methylpyrido[2,3-d]pyrimidin-7-one] | < 5.00
C=Cc1c(C#N)c(=O)n(-c2ccc(OC)cc2OC)c2nc(Nc3ccccc3OC)ncc12 [Example 160, 8-(2,4-dimethoxyphenyl)-2-((2-methoxyphenyl)amino)-7-oxo-5-vinyl-7,8-dihydropyrido[2,3-d]pyrimidine-6-carbonitrile] | 5.00 to 6.00
C#Cc1cc(=O)n(-c2cccc(NC(C)=O)c2)c2nc(Nc3ccccc3OC)ncc12 [Example 56, N-(3-(5-Ethynyl-2-((2-methoxyphenyl)amino)-7-oxopyrido[2,3-d]pyrimidin-8(7H)-yl)phenyl)acetamide] | < 5.00
C=Cc1cc(=O)n(-c2ccccc2)c2nc(Nc3ccccc3OC)ncc12 [Example 152, 5-ethenyl-2-[(2-methoxyphenyl)amino]-8-phenylpyrido[2,3-d]pyrimidin-7-one] | < 5.00
C=Cc1c(-c2c(Cl)cccc2Cl)c(=O)n(C)c2nc(Nc3ccc(N(C)CCN(C)C)cc3)ncc12 [Example 167, 6-(2,6-dichlorophenyl)-2-[(4-{[2-(dimethylamino)ethyl](methyl)amino}phenyl)amino]-5-ethenyl-8-methylpyrido[2,3-d]pyrimidin-7-one] | < 5.00
C#Cc1cc(=O)n(-c2ccc(OC)cc2OC)c2nc(Nc3ccccc3OC)ncc12 [Example 75, 8-(2,4-Dimethoxyphenyl)-5-ethynyl-2-[(2-methoxyphenyl)amino]pyrido[2,3-d]pyrimidin-7-one] | < 5.00

SMILES | pIC50
C#Cc1c(-c2ccccc2OC)c(=O)n(C)c2nc(Nc3ccc(N(C)CCN(C)C)cc3)ncc12 [Example 138, 2-[(4-{[2-(dimethylamino)ethyl](methyl)amino}phenyl)amino]-5-ethynyl-6-(2-methoxyphenyl)-8-methylpyrido [2,3-d]pyrimidin-7-one] | 5.00 to 6.00
C#Cc1cc(=O)n(-c2cccc(NS(=O)(=O)C3CC3)c2)c2nc(Nc3ccccc3OC)ncc12 [Example 58, N-(3-(5-Ethynyl-2-((2-methoxyphenyl)amino)-7-oxopyrido[2,3-d]pyrimidin-8(7H)-yl)phenyl)cyclopropanesulfonamide] | < 5.00
C#Cc1c(-c2ccccc2Cl)c(=O)n(C)c2nc(Nc3ccc(N(C)CCN(C)C)cc3OC)ncc12 [Example 122, 6-(2-chlorophenyl)-2-[(4-[[2-(dimethylamino)ethyl](methyl)amino]-2-methoxyphenyl)amino]-5-ethynyl-8-methylpyrido[2,3-d]pyrimidin-7-one] | > 6.00
C#Cc1cc(=O)n(-c2cccc(NC(=O)C=C)c2)c2nc(Nc3ccccc3OC)ncc12 [Example 85, N-(3-(5-Ethynyl-2-((2-methoxyphenyl)amino)-7-oxopyrido[2,3-d]pyrimidin-8(7H)-yl)phenyl)acrylamide] | 5.00 to 6.00
C#Cc1c(-c2ccccc2)c(=O)n(C)c2nc(Nc3ccc(N(C)CCN(C)C)cc3OC)ncc12 [Example 121, 2-[(4-[[2-(dimethylamino)ethyl](methyl)amino]-2-methoxyphenyl)amino]-5-ethynyl-8-methyl-6-phenylpyrido[2,3-d]pyrimidin-7-one] | 5.00 to 6.00
C#Cc1cc(=O)n(C2CCCC2)c2nc(Nc3ccccc3OC)ncc12 [Example 74, 8-Cyclopentyl-5-ethynyl-2-((2-methoxyphenyl)amino)pyrido[2,3-d]pyrimidin-7(8H)-one] | < 5.00
C#Cc1c(-c2ccccc2Cl)c(=O)n(C)c2nc(Nc3ccc(N(C)CCN(C)C)c(C)c3)ncc12 [Example 133, 6-(2-chlorophenyl)-2-[(4-{[2-(dimethylamino)ethyl](methyl)amino}-3-methylphenyl)amino]-5-ethynyl-8-methylpyrido[2,3-d]pyrimidin-7-one] | > 6.00
C#Cc1c(C#N)c(=O)n(-c2ccccc2)c2nc(Nc3ccccc3OC)ncc12 [Example 145, 5-ethynyl-2-[(2-methoxyphenyl)amino]-7-oxo-8-phenylpyrido[2,3-d]pyrimidine-6-carbonitrile] | < 5.00
C#Cc1c(N(C)C)c(=O)n(-c2ccccc2)c2nc(Nc3ccccc3OC)ncc12 [Example 147, 6-(dimethylamino)-5-ethynyl-2-[(2-methoxyphenyl)amino]-8-phenylpyrido[2,3-d]pyrimidin-7-one] | < 5.00
C=Cc1c(Cc2ccccc2)c(=O)n(C)c2nc(Nc3ccc(N(C)CCN(C)C)cc3)ncc12 [Example 166, 6-benzyl-2-[(4-{[2-(dimethylamino)ethyl](methyl)amino}phenyl)amino]-5-ethenyl-8-methylpyrido[2,3-d]pyrimidin-7-one] | < 5.00
C=Cc1c(-c2ccccc2Cl)c(=O)n(C)c2nc(Nc3ccc(N(C)CCN(C)C)cc3)ncc12 [Example 165, 6-(2-chlorophenyl)-2-[(4-{[2-(dimethylamino)ethyl](methyl)amino}phenyl)amino]-5-ethenyl-8-methylpyrido[2,3-d]pyrimidin-7-one] | < 5.00
C=Cc1cc(=O)n(-c2ccccc2OC)c2nc(Nc3ccccc3OC)ncc12 [Example 153, 8-(2-Methoxyphenyl)-2-((2-methoxyphenyl)amino)-5-vinylpyrido[2,3-d]pyrimidin-7(8H)-one] | < 5.00
C#Cc1c(N)c(=O)n(-c2ccccc2)c2nc(Nc3ccccc3OC)ncc12 [Example 142, 6-amino-5-ethynyl-2-[(2-methoxyphenyl)amino]-8-phenylpyrido[2,3-d]pyrimidin-7-one] | < 5.00
C#Cc1cc(=O)n(-c2ccccc2)c2nc(Nc3ccc(OCCN(C)C)cc3)ncc12 [Example 13, 2-({4-[2-(Dimethylamino)ethoxy]phenyl}amino)-5-ethynyl-8-phenylpyrido[2,3-d]pyrimidin-7-one] | > 6.00
C=Cc1c(-c2c(Cl)cccc2Cl)c(=O)n(C)c2nc(Nc3ccccc3OC)ncc12 [Example 163, 6-(2,6-dichlorophenyl)-5-ethenyl-2-[(2-methoxyphenyl)amino]-8-methylpyrido[2,3-]pyrimidin-7-one] | < 5.00
C#Cc1c(NC(C)=O)c(=O)n(-c2ccccc2)c2nc(Nc3ccccc3OC)ncc12 [Example 143, N-[5-ethynyl-2-[(2-methoxyphenyl)amino]-7-oxo-8-phenylpyrido[2,3-d]pyrimidin-6-yl]acetamide] | < 5.00
C=Cc1c(-c2c(Cl)cccc2Cl)c(=O)n(C)c2nc(Nc3cccc(CO)c3)ncc12 [Example 164, 6-(2,6-dichlorophenyl)-5-ethenyl-2-{[3-(hydroxymethyl)phenyl]amino}-8-methylpyrido[2,3-d]pyrimidin-7-one] | < 5.00
C=Cc1c(-c2ccccc2Cl)c(=O)n(C)c2nc(N)ncc12 [Example 173, 2-amino-6-(2-chlorophenyl)-5-ethenyl-8-methylpyrido[2,3-d]pyrimidin-7-one] | < 5.00

Source: US20260137703A1, “2-AMINO-PYRIDO[2,3-D]PYRIMIDIN-7(8H)-ONE AND 7-AMINO-1-PYRIMIDO[4,5-D]PYRIMIDIN-2(1 H)-ONE DERIVATIVES AS EGFR INHIBITORS FOR THE TREATMENT OF CANCER” (Cancer Research Technology Limited, priority 2022, published 2026)
